Source: PubChem BioAssay AID810 (The Scripps Research Institute Molecular Screening Center, 2007)
pIC50: −log10 of the molar value. The source made the active and inactive calls. No rule for the calls is given here.

Target: Focal adhesion kinase 1 (Homo sapiens) (UniProt Q05397)
Assay: human PTK2 enzyme blockers, IC50 – biochemical, dose response (AID 810)
Details: Recombinant FAK kinase activity inhibition assay

Focal adhesion kinase 1 (Homo sapiens), sequence (Q05397 whole entry, looked up): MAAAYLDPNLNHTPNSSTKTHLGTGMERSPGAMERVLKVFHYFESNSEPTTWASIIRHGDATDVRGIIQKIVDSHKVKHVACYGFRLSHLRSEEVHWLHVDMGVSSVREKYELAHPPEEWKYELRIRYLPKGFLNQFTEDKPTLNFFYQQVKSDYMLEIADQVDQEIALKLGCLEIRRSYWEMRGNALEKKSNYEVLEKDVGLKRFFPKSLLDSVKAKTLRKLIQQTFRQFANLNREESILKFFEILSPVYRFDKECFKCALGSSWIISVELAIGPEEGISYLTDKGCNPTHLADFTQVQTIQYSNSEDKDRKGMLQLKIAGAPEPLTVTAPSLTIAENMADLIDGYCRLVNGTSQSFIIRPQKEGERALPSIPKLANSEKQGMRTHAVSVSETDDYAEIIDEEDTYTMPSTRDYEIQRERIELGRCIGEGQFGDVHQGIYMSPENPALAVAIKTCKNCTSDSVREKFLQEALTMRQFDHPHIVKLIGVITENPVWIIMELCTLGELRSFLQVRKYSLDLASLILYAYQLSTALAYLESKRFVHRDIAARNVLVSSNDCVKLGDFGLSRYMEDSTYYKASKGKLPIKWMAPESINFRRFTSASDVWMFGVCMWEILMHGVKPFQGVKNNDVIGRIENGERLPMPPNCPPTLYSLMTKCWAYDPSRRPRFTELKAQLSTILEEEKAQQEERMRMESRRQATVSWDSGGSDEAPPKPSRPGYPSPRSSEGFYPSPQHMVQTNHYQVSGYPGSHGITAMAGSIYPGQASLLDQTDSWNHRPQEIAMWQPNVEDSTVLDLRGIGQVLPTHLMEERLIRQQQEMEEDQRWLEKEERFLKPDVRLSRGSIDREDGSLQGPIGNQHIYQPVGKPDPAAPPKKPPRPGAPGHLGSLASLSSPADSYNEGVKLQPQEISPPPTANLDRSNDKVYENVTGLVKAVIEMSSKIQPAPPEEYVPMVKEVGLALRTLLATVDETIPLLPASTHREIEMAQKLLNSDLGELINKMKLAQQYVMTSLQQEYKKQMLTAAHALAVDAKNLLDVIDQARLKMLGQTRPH

Structure (SMILES)	pIC50	IC50
COC(=O)c1cccc2c1-c1ccccc1/C2=N/O	5.03	
O=C1C(c2ccnc3ccccc23)=C(O)c2ccccc21	5.25	
N#Cc1ccccc1/C=N/Nc1nc(-c2ccccc2)c2cc(Cl)ccc2n1		inactive
Cc1nn2c(c1-c1ccccc1)NC1=C(C(=O)CCC1)C2c1ccccc1 (stereo unspecified)		> 70 µM (inactive)
O=[N+]([O-])c1cc(/C=N\Nc2nccs2)ccc1O	5.24	
COc1cccc(CN2CC(O)=C(c3nc(-c4ccc(Cl)cc4)cs3)C2=N)c1		inactive
COc1cc(N=Cc2c(O)[nH]c3ccccc23)cc(OC)c1OC	5.50	
CN1CCc2c(sc3ncn4nc(-c5ccccc5O)nc4c23)C1		inactive
O=c1c(/C=N/O)c(Nc2ccccc2)nc2ccccn12		inactive

Next, values leading:

pIC50	IC50	Structure (SMILES)
	> 70 µM (inactive)	CCOC(=O)c1sc2c(c1C)C(c1cccs1)C1=C(CCCC1=O)N2 (stereo unspecified)
	> 70 µM (inactive)	COCCOC(=O)C1=C(C)NC2=C(C(=O)CC(c3cccs3)C2)C1c1ccsc1 (stereo unspecified)
	> 70 µM (inactive)	CCOC(=O)C1=C(c2ccccc2)OC(N)=C(C#N)C1C1CCCCC1 (stereo unspecified)
	> 70 µM (inactive)	CCOC(=O)C1=C(c2ccccc2)OC(N)=C(C#N)C1c1cccs1 (stereo unspecified)
	> 70 µM (inactive)	CCOCCOC(=O)C1=C(C)NC2=C(C(=O)CC(c3cccs3)C2)C1c1ccsc1 (stereo unspecified)
	inactive	CCOC(=O)c1cccc2c1-c1ccccc1/C2=N/O
	> 70 µM (inactive)	COC(=O)C1=C(C)NC2=C(C(=O)CC(c3cccs3)C2)C1c1ccsc1 (stereo unspecified)
